Measurements as given in patent publication US8986662B2, “Use of silane and siloxane bis(biphenyl) triazine derivatives as UV absorbers” (BASF SE, priority 2010, dated 2015).

How the values were obtained:
Format in all cases: physicochemical
[1] = Measurement of solubility in Capric/Caprylic Triglyceride; conditions: solvent Capric/Caprylic Triglyceride
[2] = Measurement of photostability: irradiation of highly diluted ethanol solution, analysis by UV-spectroscopy; conditions: first order kinetic model; diluted solution in ethanol; half-life under COLIPA standard sun irradiation
Experimental: The method used for assessment of photostability is based on the irradiation of a highly diluted solution of the UV-filter. The analysis after certain doses of irradiation was performed by UV-spectroscopy. The concentration of the UV-absorber in ethanol is adjusted to values between […], such that the absorbance of the solution in cuvette of 1 cm optical pathlength is equal or smaller than 0.2. The mutual protection of filter molecules can be excluded under such conditions.
Prior to irradiation of a sample the UVB-intensity at the sample position is measured with a UV-radiometer (RM-12, Dr. Grobel Electronic GmbH). […] Therefore the relationship of the reading of the RM-12 radiometer and the corresponding spectral output of the lamp is known, and one is able to determine the wavelength-resolved intensities by measuring the UVB-intensity. […]
For sample irradiation the highest possible intensity was used (4.5 mW/cm^2 UVB-intensity measured with the Macam 103 radiometer). […] After certain intervals of irradiation, the samples were analysed in a UV-spectrometer (Perkin Elmer, Lambda 16).
From the absorbance values at each dose of irradiation the concentration may be calculated using Lambert-Beer's law. […]

[3] = UV shielding properties: UV spectra in ethanol
From the text: The UV shielding properties of the bisbiphenyl triazine derivatives were investigated by measuring their UV spectra in ethanol. In the following table the investigated absorption maxima (λmax) together with the corresponding A^1%1cm values are listed.

[4] = UV spectrum in tetrahydrofurane (synthesis examples); conditions: for ε: at λmax

Solubility in Capric/Caprylic Triglyceride [1] | Half time [2] | Absorption maximum λmax [3] | λmax [4] | ε [4] | Structure (SMILES)
22.8 w-% | 412.1 h | 319 | 319 nm | 76300 M⁻¹ cm⁻¹ | CC[Si](CC)(CC)CCCOc1ccc(-c2nc(-c3ccc(-c4ccccc4)cc3)nc(-c3ccc(-c4ccccc4)cc3)n2)c(O)c1 [S-2]
– | 342.2 h | 320 | 320 nm | 75800 M⁻¹ cm⁻¹ | CCO[Si](CCCOc1ccc(-c2nc(-c3ccc(-c4ccccc4)cc3)nc(-c3ccc(-c4ccccc4)cc3)n2)c(O)c1)(OCC)OCC [S-8]
